Reference: US9181218B2, “Compounds for improved stem cell differentiation into hepatocytes” (Hoffmann-La Roche Inc., priority 2013, dated 2015)

System: Human iPSC-derived hepatocytes (iCell® Hepatocytes)
Assay: Gene expression profiling of iCell Hepatocytes by microfluidic qRT-PCR
Format: cell-based
Settings: multiple doses, FIG. 1
Procedure: Human iPSC-derived hepatocytes (iCell® Hepatocytes) were exposed to the compounds of formula I with the goal of identifying conditions that favor greater functionality that better models the adult organ. […] Gene expression changes were validated and confirmed in a secondary screen, and functional consequences were queried.
Fresh iCell® Hepatocytes (day 20-23) were plated and cultured according to iCell Hepatocytes Dissociation and Plating User's Guide at 60 k cells per well in 96 well BIO Collagen IV coated plates (BD Cat#354429) 4 Hours post plating Medium C was removed and replaced with a 1:50 Matrigel (Cat#354227) overlay in Medium D. We dosed the cells at 5 uM in Medium D and 1% DMSO 24 hours post plating. Day 3, media was removed and we dosed again at 5 uM. Day 4 we Harvested RNA.
Sample RNA was isolated using TaqMan® Gene Expression Cells-to-CT™ Kit (Life Technologies Cat#4387299) froze at −80 C at various time points post compound treatment. All samples were processed by microfluidic quantitative PCR using the Biomark Fluidigm 96.96 chips (BMK-M-96.96) and ABI Taqman probes. Normalization and model-based expression measurements were calculated using the Biogazelle qBASE and Genorm software. […] Expression values are calculated by the fold change over vehicle control. […]

O=C(NCc1cccc(F)c1)c1cccc2nc(-c3c(NC[C@@H](O)c4ccccc4)cc[nH]c3=O)[nH]c12 [Example 1, 2-[4-((S)-2-hydroxy-2-phenyl-ethylamino)-2-oxo-1,2-dihydro-pyridin-3-yl]-3H-benzoimidazole-4-carboxylic acid 3-fluoro-benzylamide]
expression of genes spanning hepatocyte function: global increase of genes spanning hepatocyte function
